Converted amounts (≈) assume the structure as drawn. Read-outs that look alike come from different tables or passages of the source.
Tests used:
[1] = test system: Staphylococcus aureus ATCC 6538P/methicillin-sensitive; test: MIC, reference strains of aerobic bacteria; assay type: cell-based; conditions: ATCC6538P
[2] = test system: Staphylococcus epidermidis KUB4871/methicillin-sensitive; test: MIC, reference strains of aerobic bacteria; assay type: cell-based
[3] = test system: Staphylococcus epidermidis KUB4862/methicillin-resistant; test: MIC, reference strains of aerobic bacteria; assay type: cell-based
[4] = test system: Staphylococcus lugdunensis KUB4804; test: MIC, reference strains of aerobic bacteria; assay type: cell-based
[5] = test system: Staphylococcus saprophyticus KUB4845; test: MIC, reference strains of aerobic bacteria; assay type: cell-based
[6] = test system: Micrococcus luteus ATCC 9341; test: MIC, reference strains of aerobic bacteria; assay type: cell-based; conditions: ATCC9341
[7] = test system: Enterococcus faecalis ATCC 29212; test: MIC, reference strains of aerobic bacteria; assay type: cell-based; conditions: ATCC29212
[8] = test system: Streptococcus mutans GTC218; test: MIC, reference strains of aerobic bacteria; assay type: cell-based
[9] = test system: Streptococcus porcinus ATCC 12391; test: MIC, reference strains of aerobic bacteria; assay type: cell-based; conditions: ATCC12391
[10] = test system: Streptococcus salivarius GTC215; test: MIC, reference strains of aerobic bacteria; assay type: cell-based
[11] = test system: Klebsiella aerogenes NCTC 10006 (ATCC 13048); test: MIC, reference strains of aerobic bacteria; assay type: cell-based
[12] = test system: Acinetobacter baumannii ATCC 19606; test: MIC, reference strains of aerobic bacteria; assay type: cell-based; conditions: ATCC19606
[13] = test system: Moraxella catarrhalis ATCC 25238; test: MIC, reference strains of aerobic bacteria; assay type: cell-based; conditions: ATCC25238
Olsenella uli KUB3012 = test: MIC, agar dilution, reference strains of anaerobic bacteria; assay type: cell-based
Atopobium rimae KUB3014 = test: as above; assay type: cell-based; conditions: Lancefieldella rimae
[14] = test system: Bacteroides fragilis ATCC 25285; test: as above; assay type: cell-based; conditions: ATCC25285
[15] = test system: Bacteroides fragilis KUB2982; test: as above; assay type: cell-based
[16] = test system: Prevotella histicola KUB2989; test: as above; assay type: cell-based
[17] = test system: Prevotella melaninogenica KUB3005; test: as above; assay type: cell-based
[18] = test system: Prevotella buccae KUB2992; test: as above; assay type: cell-based; conditions: Segatella buccae
CTX-M-27 = CTX-M-27 (Escherichia coli, UniProt Q840M4); test: Ki app determination (Waley's method)
SHV-5 = SHV-5 (Klebsiella pneumoniae, UniProt P0A3M1); test: Ki app determination (Waley's method)
[19] = test system: MEM-nonsusceptible Enterobacterales; test: MIC, broth microdilution; assay type: cell-based; conditions: for CLSI MIC interpretation I (intermediate) / CLSI MIC interpretation R (resistant) / CLSI MIC interpretation S (susceptible): CLSI breakpoints, marked c: breakpoints for β-lactam alone; for MIC50 / MIC90: fixed concentration (μg/mL) in label
[20] = test system: serine-carbapenemase-producing isolates (Enterobacterales); test: MIC, broth microdilution; assay type: cell-based; conditions: for MIC50 / MIC90: fixed concentration (μg/mL) in label
[21] = test system: E. coli CDC-119 (NDM-1), PBP3 mutations; test: MIC, broth microdilution; assay type: cell-based; conditions: Escherichia coli
[22] = test system: E. coli CDC-149 (NDM-7), PBP3 mutations; test: MIC, broth microdilution; assay type: cell-based; conditions: Escherichia coli
[23] = test system: E. coli CDC-151 (NDM-5), PBP3 mutations; test: MIC, broth microdilution; assay type: cell-based; conditions: Escherichia coli, fixed BLI concentration (μg/mL) in parentheses in label
[24] = test system: E. coli CDC-162 (NDM-7), PBP3 mutations; test: MIC, broth microdilution; assay type: cell-based; conditions: Escherichia coli
[25] = test system: Carbapenemase-producing P. aeruginosa (7); test: MIC and MBC testing; assay type: cell-based, Pseudomonas aeruginosa; conditions: 7 carbapenemase-producing P. aeruginosa; fixed BLI concentration (μg/mL) in label
[26] = test system: MEM-nonsusceptible Enterobacterales with serine-carbapenemases; test: MIC, broth microdilution; assay type: cell-based; conditions: for CLSI MIC interpretation I (intermediate) / CLSI MIC interpretation R (resistant) / CLSI MIC interpretation S (susceptible): CLSI breakpoints, marked c: breakpoints for β-lactam alone; for MIC50 / MIC90: fixed concentration (μg/mL) in label
[27] = test system: Cefepime/taniborbactam-nonsusceptible Enterobacterales with metallo-carbapenemases (25); test: MIC, broth microdilution; assay type: cell-based; conditions: CDC AR Bank
[28] = test system: E. coli ATCC BAA-2469 (NDM-1); test: Lethal mouse model of systemic infection; conditions: Escherichia coli, ATCCBAA2469, in Mus musculus, sc
[29] = test system: A. baumannii CDC-303 (OXA-23, 66); test: Lethal mouse model of systemic infection; conditions: Acinetobacter baumannii, in Mus musculus, sc, read-out: ED50 of MEM, extrapolated from the probit analysis
[30] = MEM-nonsusceptible Enterobacterales (92), CDC AR Bank
[31] = MEM-nonsusceptible Enterobacterales (127), cefiderocol 126 isolates, tigecycline: FDA breakpoints
[32] = Enterobacterales with serine-carbapenemases (61), CDC AR Bank, CLSI breakpoints, marked c: breakpoints for β-lactam alone
[33] = Enterobacterales with serine-carbapenemases (61), CDC AR Bank
[34] = Enterobacterales with serine-carbapenemases (80), CLSI breakpoints, marked c: breakpoints for β-lactam alone, tigecycline: FDA breakpoints
[35] = MEM-nonsusceptible Enterobacterales with serine-carbapenemases (42), CDC AR Bank
[36] = MEM-nonsusceptible Enterobacterales with serine-carbapenemases (58), tigecycline: FDA breakpoints
[37] = CLSI breakpoints, marked c: breakpoints for β-lactam alone
[38] = fixed concentration (μg/mL) in label

## N[C@@H](C(=O)N1CC(Oc2ccc3c(c2C(=O)O)OB(O)CC3)C1)c1c[nH]cn1 [KSP-1007, 7-({1-[(2R)-2-amino-2-(1H-imidazol-4-yl)acetyl]azetidin-3-yl}oxy)-2-hydroxy-3,4-dihydro-2H-1,2-benzoxaborinine-8-carboxylic acid]
[1]
  MIC: 8 µg/mL (≈ 20.7 µM)
[2]
  MIC: 4 µg/mL (≈ 10.4 µM)
[3]
  MIC: > 128 µg/mL
[4]
  MIC: 4 µg/mL (≈ 10.4 µM)
[5]
  MIC: 4 µg/mL (≈ 10.4 µM)
[6]
  MIC: 128 µg/mL (≈ 331 µM)
[7]
  MIC: 64 µg/mL (≈ 166 µM)
[8]
  MIC: 8 µg/mL (≈ 20.7 µM)
[9]
  MIC: 2 µg/mL (≈ 5.18 µM)
[10]
  MIC: 0.25 µg/mL (≈ 0.647 µM)
[11]
  MIC: > 128 µg/mL
[12]
  MIC: > 128 µg/mL
[13]
  MIC: 64 µg/mL (≈ 166 µM)
Olsenella uli KUB3012
  MIC: 64 µg/mL (≈ 166 µM)
Atopobium rimae KUB3014
  MIC: 8 µg/mL (≈ 20.7 µM)
[14]
  MIC: 8 µg/mL (≈ 20.7 µM)
[15]
  MIC: 16 µg/mL (≈ 41.4 µM)
[16]
  MIC: 8 µg/mL (≈ 20.7 µM)
[17]
  MIC: 4 µg/mL (≈ 10.4 µM)
[18]
  MIC: 8 µg/mL (≈ 20.7 µM)
CTX-M-27
  Ki: 0.159 ± 0.0228 nM
SHV-5
  Ki: 127 ± 16 nM

## C[C@@H](O)[C@H]1C(=O)N2C(C(=O)O)=C(S[C@@H]3CN[C@H](C(=O)N(C)C)C3)[C@H](C)[C@H]12 [MEM, meropenem]
[19]; [30]
  CLSI MIC interpretation I (intermediate): 16.3%
  CLSI MIC interpretation R (resistant): 83.7%
  CLSI MIC interpretation S (susceptible): 0%
  MIC50: 8 µg/mL (≈ 20.9 µM)
  MIC90: >32 µg/mL
[19]; [31]
  CLSI MIC interpretation I (intermediate): 18.1%
  CLSI MIC interpretation R (resistant): 81.9%
  CLSI MIC interpretation S (susceptible): 0%
[19]; MEM-nonsusceptible Enterobacterales (127), cefiderocol 126 isolates, read-out: MIC50
  MIC50: 8 µg/mL (≈ 20.9 µM)
[19]; MEM-nonsusceptible Enterobacterales (127), cefiderocol 126 isolates, read-out: MIC90
  MIC90: > 32 µg/mL
[20]; [32]
  CLSI MIC interpretation R (resistant): 57.4%
  CLSI MIC interpretation S (susceptible): 31.1%
[20]; [33]
  MIC50: 4 µg/mL (≈ 10.4 µM)
  MIC90: 32 µg/mL (≈ 83.4 µM)
[20]; [34]
  CLSI MIC interpretation I (intermediate): 11.3%
  CLSI MIC interpretation R (resistant): 61.3%
  CLSI MIC interpretation S (susceptible): 27.5%
[20]; Enterobacterales with serine-carbapenemases (80), read-out: MIC50
  MIC50: 4 µg/mL (≈ 10.4 µM)
[20]; Enterobacterales with serine-carbapenemases (80), read-out: MIC90
  MIC90: 32 µg/mL (≈ 83.4 µM)
[21]
  MIC: 32 µg/mL (≈ 83.4 µM)
[22]
  MIC: 8 µg/mL (≈ 20.9 µM)
[23]
  MIC: 8 µg/mL (≈ 20.9 µM)
[24]
  MIC: 32 µg/mL (≈ 83.4 µM)
[25]
  MBC range: 64 to 256 µg/mL
  MIC Range: 64 to 256 µg/mL
[1]
  MIC: 0.06 µg/mL (≈ 0.156 µM)
[2]
  MIC: 0.06 µg/mL (≈ 0.156 µM)
[3]
  MIC: 4 µg/mL (≈ 10.4 µM)
[4]
  MIC: 0.12 µg/mL (≈ 0.313 µM)
[5]
  MIC: 0.12 µg/mL (≈ 0.313 µM)
[6]
  MIC: 0.06 µg/mL (≈ 0.156 µM)
[7]
  MIC: 1 µg/mL (≈ 2.61 µM)
[8]
  MIC: ≤ 0.03 µg/mL
[9]
  MIC: ≤ 0.03 µg/mL
[10]
  MIC: ≤ 0.03 µg/mL
[11]
  MIC: ≤ 0.03 µg/mL
[12]
  MIC: 0.5 µg/mL (≈ 1.3 µM)
[13]
  MIC: ≤ 0.03 µg/mL
[26]; [35]
  CLSI MIC interpretation I (intermediate): 16.7%
  CLSI MIC interpretation R (resistant): 83.3%
  CLSI MIC interpretation S (susceptible): 0%
  MIC50: 8 µg/mL (≈ 20.9 µM)
  MIC90: 32 µg/mL (≈ 83.4 µM)
[26]; [36]
  CLSI MIC interpretation I (intermediate): 15.5%
  CLSI MIC interpretation R (resistant): 84.5%
  CLSI MIC interpretation S (susceptible): 0%
[26]; MEM-nonsusceptible Enterobacterales with serine-carbapenemases (58), read-out: MIC50
  MIC50: 8 µg/mL (≈ 20.9 µM)
[26]; MEM-nonsusceptible Enterobacterales with serine-carbapenemases (58), read-out: MIC90
  MIC90: 32 µg/mL (≈ 83.4 µM)
[27]; [37]
  CLSI MIC interpretation I (intermediate): 0%
  CLSI MIC interpretation R (resistant): 96%
  CLSI MIC interpretation S (susceptible): 4%
[27]; [38]
  MIC50: 32 µg/mL (≈ 83.4 µM)
  MIC90: > 32 µg/mL
[28]; read-out: ED50 of MEM (95% confidence intervals), E. coli ATCC BAA-2469, Experiment 1, single sc dose, survival day 7, dose ratio in label
  ED50: 103 mg/kg
[28]; read-out: ED50 of MEM (95% confidence intervals), E. coli ATCC BAA-2469, Experiment 2, single sc dose, survival day 7, dose ratio in label
  ED50: 118 mg/kg
[29]
  ED50: 6550 mg/kg
